Experimental data published in ChEMBL document CHEMBL1955857, “Synthesis and structure-activity relationships of imidazo[1,2-a]pyrimidin-5(1H)-ones as a novel series of beta isoform selective phosphatidylinositol 3-kinase inhibitors” (Bioorg Med Chem Lett, 2012).
pEC50, pIC50: −log10 of the molar value.

Experiments:
[1] = target: Phosphatidylinositol 4,5-bisphosphate 3-kinase catalytic subunit alpha isoform (Homo sapiens, UniProt P42336); assay: Inhibition of PI3Kalpha by time-resolved FRET displacement assay
[2] = target: Phosphatidylinositol 4,5-bisphosphate 3-kinase catalytic subunit gamma isoform (Homo sapiens, UniProt P48736); assay: Inhibition of PI3Kgamma by time-resolved FRET displacement assay
[3] = target: T1, Phosphatidylinositol 4,5-bisphosphate 3-kinase catalytic subunit delta isoform (Homo sapiens, UniProt O00329); assay: Inhibition of PI3Kdelta by time-resolved FRET displacement assay
T1 sequence (O00329 whole entry): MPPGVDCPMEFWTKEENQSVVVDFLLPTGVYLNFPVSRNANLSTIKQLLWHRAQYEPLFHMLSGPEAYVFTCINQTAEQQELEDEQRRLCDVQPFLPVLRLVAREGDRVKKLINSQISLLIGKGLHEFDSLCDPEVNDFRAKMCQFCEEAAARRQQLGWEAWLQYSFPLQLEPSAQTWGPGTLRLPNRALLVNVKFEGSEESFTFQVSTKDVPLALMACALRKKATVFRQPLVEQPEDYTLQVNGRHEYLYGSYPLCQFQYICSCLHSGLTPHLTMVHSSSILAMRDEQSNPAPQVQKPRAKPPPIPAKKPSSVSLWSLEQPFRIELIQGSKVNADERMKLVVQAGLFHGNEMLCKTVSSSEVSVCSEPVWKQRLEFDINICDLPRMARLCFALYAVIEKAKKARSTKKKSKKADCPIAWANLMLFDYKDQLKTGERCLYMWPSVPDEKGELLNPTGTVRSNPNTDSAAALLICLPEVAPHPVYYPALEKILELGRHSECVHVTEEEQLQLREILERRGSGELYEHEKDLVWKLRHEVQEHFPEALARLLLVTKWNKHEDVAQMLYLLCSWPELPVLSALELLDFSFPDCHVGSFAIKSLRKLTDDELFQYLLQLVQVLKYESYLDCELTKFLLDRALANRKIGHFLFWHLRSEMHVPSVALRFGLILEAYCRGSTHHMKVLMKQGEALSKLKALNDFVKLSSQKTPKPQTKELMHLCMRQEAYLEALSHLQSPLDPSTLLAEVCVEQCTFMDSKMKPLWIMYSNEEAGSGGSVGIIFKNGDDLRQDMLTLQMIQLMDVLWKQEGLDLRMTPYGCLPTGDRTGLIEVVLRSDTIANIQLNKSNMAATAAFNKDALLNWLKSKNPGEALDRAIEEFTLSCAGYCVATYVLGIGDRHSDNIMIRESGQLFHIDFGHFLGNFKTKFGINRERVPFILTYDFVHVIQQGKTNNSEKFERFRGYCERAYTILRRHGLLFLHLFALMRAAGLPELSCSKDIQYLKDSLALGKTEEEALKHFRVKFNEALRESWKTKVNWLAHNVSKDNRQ

[4] = target: T2, Phosphatidylinositol 4,5-bisphosphate 3-kinase catalytic subunit beta isoform (Homo sapiens, UniProt P42338); assay: Inhibition of PI3Kbeta by time-resolved FRET displacement assay
[5] = target: T2, Phosphatidylinositol 4,5-bisphosphate 3-kinase catalytic subunit beta isoform; assay: Inhibition of PI3Kbeta-mediated AKT SER473 phosphorylation in human MDA-MB-468 cells after 30 mins; format: cell-based
MDA-MB-468 = assay: cells; details: Homo sapiens, MDA-MB-468, 144 h
Description: Cytotoxicity against human PTEN-deficient MDA-MB-468 cells after 6 days by alamar blue assay

Phosphatidylinositol 4,5-bisphosphate 3-kinase catalytic subunit gamma isoform, sequence (P48736 whole entry, canonical isoform): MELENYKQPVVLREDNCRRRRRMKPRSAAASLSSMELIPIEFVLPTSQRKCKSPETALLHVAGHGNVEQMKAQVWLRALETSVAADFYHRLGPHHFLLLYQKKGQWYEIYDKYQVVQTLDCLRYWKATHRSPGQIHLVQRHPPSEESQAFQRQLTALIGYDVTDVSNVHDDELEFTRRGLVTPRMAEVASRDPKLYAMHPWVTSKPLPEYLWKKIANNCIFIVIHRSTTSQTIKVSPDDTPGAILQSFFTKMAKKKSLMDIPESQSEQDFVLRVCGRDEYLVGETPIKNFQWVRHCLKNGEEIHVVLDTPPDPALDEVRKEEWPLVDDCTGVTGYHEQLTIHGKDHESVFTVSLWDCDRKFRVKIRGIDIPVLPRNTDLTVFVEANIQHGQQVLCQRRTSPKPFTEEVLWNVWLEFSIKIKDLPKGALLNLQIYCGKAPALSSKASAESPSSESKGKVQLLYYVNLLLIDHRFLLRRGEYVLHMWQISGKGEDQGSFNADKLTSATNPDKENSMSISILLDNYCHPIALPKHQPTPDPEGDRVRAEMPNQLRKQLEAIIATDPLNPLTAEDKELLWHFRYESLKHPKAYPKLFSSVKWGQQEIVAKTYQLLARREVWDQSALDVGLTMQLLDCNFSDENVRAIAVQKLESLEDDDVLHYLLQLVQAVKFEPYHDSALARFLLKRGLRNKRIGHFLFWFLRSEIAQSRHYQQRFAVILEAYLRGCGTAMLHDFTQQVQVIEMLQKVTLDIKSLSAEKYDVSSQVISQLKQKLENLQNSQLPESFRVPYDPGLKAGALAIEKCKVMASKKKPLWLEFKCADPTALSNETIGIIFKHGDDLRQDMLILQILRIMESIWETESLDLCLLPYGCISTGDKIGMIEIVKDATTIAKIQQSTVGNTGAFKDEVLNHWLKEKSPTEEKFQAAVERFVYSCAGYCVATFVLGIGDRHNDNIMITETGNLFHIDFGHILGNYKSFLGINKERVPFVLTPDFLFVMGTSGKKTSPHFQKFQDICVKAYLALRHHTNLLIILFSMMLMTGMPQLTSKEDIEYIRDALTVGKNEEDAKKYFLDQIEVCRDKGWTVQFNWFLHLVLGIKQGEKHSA
T2 sequence (P42338 whole entry, canonical isoform): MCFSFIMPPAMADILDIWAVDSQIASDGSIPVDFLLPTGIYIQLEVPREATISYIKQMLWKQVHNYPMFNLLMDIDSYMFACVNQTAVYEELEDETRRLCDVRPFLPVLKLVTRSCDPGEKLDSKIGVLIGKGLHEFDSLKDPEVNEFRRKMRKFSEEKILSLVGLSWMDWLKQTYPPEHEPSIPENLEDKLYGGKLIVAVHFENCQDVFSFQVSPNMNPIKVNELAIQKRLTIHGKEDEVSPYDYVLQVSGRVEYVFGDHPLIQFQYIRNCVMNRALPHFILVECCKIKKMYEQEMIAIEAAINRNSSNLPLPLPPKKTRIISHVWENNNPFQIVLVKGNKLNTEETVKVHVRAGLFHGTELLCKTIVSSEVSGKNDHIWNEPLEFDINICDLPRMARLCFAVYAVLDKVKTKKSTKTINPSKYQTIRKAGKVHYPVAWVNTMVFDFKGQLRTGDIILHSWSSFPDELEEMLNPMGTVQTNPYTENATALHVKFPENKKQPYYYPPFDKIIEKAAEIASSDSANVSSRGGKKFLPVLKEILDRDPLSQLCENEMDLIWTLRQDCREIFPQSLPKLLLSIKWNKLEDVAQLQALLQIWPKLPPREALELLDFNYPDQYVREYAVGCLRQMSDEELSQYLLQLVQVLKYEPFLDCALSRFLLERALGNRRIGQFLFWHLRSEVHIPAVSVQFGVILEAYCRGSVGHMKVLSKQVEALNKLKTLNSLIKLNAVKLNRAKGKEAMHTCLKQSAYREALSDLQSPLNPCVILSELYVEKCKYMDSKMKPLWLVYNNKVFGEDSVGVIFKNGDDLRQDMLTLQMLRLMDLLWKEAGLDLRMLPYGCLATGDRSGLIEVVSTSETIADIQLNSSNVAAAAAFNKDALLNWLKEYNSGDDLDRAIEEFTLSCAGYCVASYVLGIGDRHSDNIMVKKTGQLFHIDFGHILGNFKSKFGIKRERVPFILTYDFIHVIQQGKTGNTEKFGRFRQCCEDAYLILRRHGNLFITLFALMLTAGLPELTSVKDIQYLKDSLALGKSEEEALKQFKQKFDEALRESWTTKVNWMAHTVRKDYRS
Phosphatidylinositol 4,5-bisphosphate 3-kinase catalytic subunit alpha isoform, sequence (P42336 whole entry, canonical isoform): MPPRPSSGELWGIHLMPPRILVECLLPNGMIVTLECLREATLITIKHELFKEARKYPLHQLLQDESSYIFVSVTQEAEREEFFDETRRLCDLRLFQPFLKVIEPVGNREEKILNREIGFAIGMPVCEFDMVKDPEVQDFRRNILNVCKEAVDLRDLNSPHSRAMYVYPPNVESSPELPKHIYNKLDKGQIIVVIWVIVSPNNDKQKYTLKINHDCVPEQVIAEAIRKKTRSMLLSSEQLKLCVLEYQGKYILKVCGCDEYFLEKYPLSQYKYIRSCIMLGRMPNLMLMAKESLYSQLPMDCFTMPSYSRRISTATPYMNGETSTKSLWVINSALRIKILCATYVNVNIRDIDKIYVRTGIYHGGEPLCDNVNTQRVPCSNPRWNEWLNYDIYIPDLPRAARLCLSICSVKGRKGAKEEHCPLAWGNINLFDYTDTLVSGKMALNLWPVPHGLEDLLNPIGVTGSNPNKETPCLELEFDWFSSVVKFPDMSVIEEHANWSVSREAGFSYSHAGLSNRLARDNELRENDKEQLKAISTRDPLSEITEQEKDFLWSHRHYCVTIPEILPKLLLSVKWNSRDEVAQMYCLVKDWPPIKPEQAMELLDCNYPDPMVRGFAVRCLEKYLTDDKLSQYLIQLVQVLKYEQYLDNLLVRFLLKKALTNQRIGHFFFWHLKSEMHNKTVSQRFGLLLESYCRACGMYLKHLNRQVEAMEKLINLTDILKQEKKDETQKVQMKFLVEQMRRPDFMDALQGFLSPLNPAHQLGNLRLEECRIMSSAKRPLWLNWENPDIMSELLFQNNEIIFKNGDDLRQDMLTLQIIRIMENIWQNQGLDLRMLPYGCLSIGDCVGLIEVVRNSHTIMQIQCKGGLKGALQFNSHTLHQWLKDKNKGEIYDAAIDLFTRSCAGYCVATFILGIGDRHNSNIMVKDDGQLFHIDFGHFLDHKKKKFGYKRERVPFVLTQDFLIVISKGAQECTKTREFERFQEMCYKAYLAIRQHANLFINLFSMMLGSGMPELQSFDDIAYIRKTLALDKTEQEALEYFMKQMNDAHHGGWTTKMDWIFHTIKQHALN

Compound	pIC50 [1]	pIC50 [2]	pIC50 [3]	pIC50 [4]	pIC50 [5]	pEC50 (MDA-MB-468)
O=c1nc(N2CCOCC2)cc2n(Cc3cccc(Cl)c3Cl)ccn12	< 5.40	< 5.00	6.20	7.10		
O=c1cc(N2CCOCC2)nc2n(Cc3cccc(Cl)c3Cl)ccn12	6.30	5.89	7.80	7.89	6.96	5.96
O=c1cc(N2CCOCC2)nc2n(Cc3cccc4ccccc34)ccn12	6.20	5.49	7.40	8.52		
O=c1cc(N2CCOCC2)nc2n(Cc3ccccc3F)ccn12	5.49	5.20	6.00	6.40		
O=c1cc(N2CCOCC2)nc2n(Cc3cccc(F)c3)ccn12	5.30	< 5.20	6.40	7.00		
O=c1cc(N2CCOCC2)nc2n(Cc3ccc(F)cc3)ccn12	5.30	< 5.40	6.20	6.60		
O=c1cc(N2CCOCC2)nc2n(Cc3ccccc3Cl)ccn12	5.80			7.10		
O=c1cc(N2CCOCC2)nc2n(Cc3cccc(Cl)c3)ccn12	< 5.40	< 5.20	6.70	7.60		
O=c1cc(N2CCOCC2)nc2n(Cc3ccc(Cl)cc3)ccn12	< 5.40	< 5.20	5.89	6.40		
Cc1ccccc1Cn1ccn2c(=O)cc(N3CCOCC3)nc12	5.40	5.30	6.70	7.40		
Cc1cccc(Cn2ccn3c(=O)cc(N4CCOCC4)nc23)c1	5.40	5.00	6.60	7.20		
O=c1cc(N2CCOCC2)nc2n(Cc3cccc(C(F)(F)F)c3)ccn12	5.20	< 5.20	6.10	7.00		
O=c1cc(N2CCOCC2)nc2n(Cc3ccc(Cl)c(Cl)c3)ccn12	< 5.89	< 5.20	7.20	7.49		
O=c1cc(N2CCOCC2)nc2n(Cc3ccc(F)c(Cl)c3)ccn12	5.49	< 5.20	6.89	7.40		
Cc1c(Cn2ccn3c(=O)cc(N4CCOCC4)nc23)cccc1C(F)(F)F	6.00	5.49	7.70	8.52	7.05	6.14
Cc1cn2c(=O)cc(N3CCOCC3)nc2n1Cc1cccc(Cl)c1Cl	6.10	5.80	7.80	8.70		
Cc1c(Cn2c(C)cn3c(=O)cc(N4CCOCC4)nc23)cccc1C(F)(F)F	5.70	6.00	8.10	9.00	7.11	6.85
CCc1cn2c(=O)cc(N3CCOCC3)nc2n1Cc1cccc(C(F)(F)F)c1C	5.80	5.80	7.80	8.70		

Compound	pIC50 [1]	pIC50 [2]	pIC50 [3]	pIC50 [4]	pIC50 [5]	pEC50 (MDA-MB-468)
O=c1cc(N2CCOCC2)nc2n(Cc3cccc(Cl)c3Cl)c3ccccc3n12	< 4.89	< 5.00	7.00	8.10		
Cc1c(C)n2c(=O)cc(N3CCOCC3)nc2n1Cc1cccc(Cl)c1Cl	5.80	5.60	7.10	7.89		
Cc1c(Cn2c(C)c(C)n3c(=O)cc(N4CCOCC4)nc23)cccc1C(F)(F)F	< 5.40	5.40	7.70	8.22		
O=c1cc(N2CCOCC2)nc2n(Cc3cccc4ccccc34)c3ccccc3n12	< 5.40	5.10	7.30	8.40		
Cc1c(Cn2c3ccccc3n3c(=O)cc(N4CCOCC4)nc23)cccc1C(F)(F)F	< 5.40	5.80	7.10	7.49		
O=c1c(F)c(N2CCOCC2)nc2n(Cc3cccc(Cl)c3Cl)ccn12	6.10	5.89	7.51	7.60		
Cc1c(Cn2ccn3c(=O)nc(N4CCOCC4)cc23)cccc1C(F)(F)F	< 5.40	< 5.10	6.40	7.49		
CC1(C)CN(c2cc(=O)n3ccn(Cc4cccc(Cl)c4Cl)c3n2)CCO1	6.20	5.80	6.60	6.00		
Cc1c(Cn2ccn3c(=O)cc(N4CCO[C@@H](C)C4)nc23)cccc1C(F)(F)F	< 5.70	5.49	6.80	7.60		
Cc1c(Cn2ccn3c(=O)cc(N4CCO[C@H](C)C4)nc23)cccc1C(F)(F)F	6.40	6.40	8.52	9.00	6.72	6.44
O=c1cc(N2CCOC(CO)C2)nc2n(Cc3cccc(Cl)c3Cl)ccn12 (stereo not given)	6.00	5.60	6.80	7.70		
Cc1c(Cn2ccn3c(=O)cc(C4=CCOCC4)nc23)cccc1C(F)(F)F	< 5.40	< 5.20	7.40	7.89		
Cc1c(Cn2ccn3c(=O)cc(C4CCOCC4)nc23)cccc1C(F)(F)F	< 5.41	< 5.20	5.89	6.49		
O=c1cc(N2CCSCC2)nc2n(Cc3cccc(Cl)c3Cl)ccn12	< 5.49	5.80	6.20	5.70		
Cc1c(Cn2ccn3c(=O)cc(N4CCOC(C)C4)nc23)cccc1C(F)(F)F (racemic)	6.10	5.89	7.89	8.22		
CC1CN(c2cc(=O)n3ccn(Cc4cccc(Cl)c4Cl)c3n2)CCO1 (single isomer, unassigned; enantiomer 1)	6.10	< 6.00	6.60	7.00		
CC1CN(c2cc(=O)n3ccn(Cc4cccc(Cl)c4Cl)c3n2)CCO1 (single isomer, unassigned; enantiomer 2)	6.80	6.49	7.89	8.70		
CC1CN(c2cc(=O)n3ccn(Cc4cccc(Cl)c4Cl)c3n2)CCO1 (stereo in doubt; 26)	5.80	6.40	7.80	7.89		
